Test: xn = mol fraction of the nth substance listed
Conditions: 100 kPa, Liquid; for speed of sound: Frequency=3 MHz, Single path-length method; for mass density: Vibrating tube method

CCCCNCCCC [dibutylamine] + CCC(C)O
Conditions	mass density, 293.15 K [kg/m3]	mass density, 298.15 K [kg/m3]	mass density, 303.15 K [kg/m3]	mass density, 308.15 K [kg/m3]	speed of sound, 293.15 K [m/s]	speed of sound, 298.15 K [m/s]	speed of sound, 303.15 K [m/s]	speed of sound, 308.15 K [m/s]
x1 = 0.0995	802.339	798.045	793.785	789.452	1242.3	1223.7	1205	1186.7
x1 = 0.2027	796.429	792.197	787.914	783.574	1249.9	1231	1211.9	1193.6
x1 = 0.3027	791.522	787.26	782.952	778.597	1254.5	1235.3	1216.2	1197.1
x1 = 0.3993	786.764	782.487	778.177	773.83	1257.8	1238.8	1219.4	1200.1
x1 = 0.4995	781.846	777.578	773.281	768.951	1260.6	1241.1	1221.7	1202.6
x1 = 0.6007	776.991	772.741	768.441	764.17	1261	1241.4	1221.9	1202.6
x1 = 0.7	772.61	768.394	764.156	759.896	1261.9	1242.7	1223.1	1203.9
x1 = 0.8002	768.643	764.449	760.24	756.011	1263.6	1243.7	1224	1204.4
x1 = 0.8989	764.755	760.595	756.428	752.248	1264.1	1244.4	1224.6	1204.8
x1 = 1	759.579	755.48	751.374	747.268	1260.1	1240.1	1220.3	1200.6

CC(C)NC(C)C [diisopropylamine] + CCCC(C)O
Conditions	mass density, 293.15 K [kg/m3]	mass density, 298.15 K [kg/m3]	mass density, 303.15 K [kg/m3]	mass density, 308.15 K [kg/m3]	speed of sound, 293.15 K [m/s]	speed of sound, 298.15 K [m/s]	speed of sound, 303.15 K [m/s]	speed of sound, 308.15 K [m/s]
x1 = 0.0998	803.093	798.887	794.621	790.277	1248.1	1229	1209.9	1190.3
x1 = 0.2001	795.724	791.357	786.936	782.457	1241.1	1220.9	1200.8	1181.5
x1 = 0.3	787.848	783.455	778.721	774.03	1230	1209.5	1189.3	1168.8
x1 = 0.4001	778.463	773.871	769.242	764.565	1216.8	1196.3	1175.3	1154.3
x1 = 0.5006	768.901	764.237	759.54	754.802	1201.8	1180.2	1158.9	1137.8
x1 = 0.6001	758.906	754.192	749.437	744.665	1185.2	1164	1142.1	1120.9
x1 = 0.678	751.419	746.673	741.893	737.079	1172.8	1151	1129.1	1107.4
x1 = 0.7975	738.446	733.65	728.827	723.973	1152.6	1130.2	1108.1	1086.2
x1 = 0.8993	728.166	723.262	718.39	713.692	1132.8	1110.2	1087.8	1063.8
x1 = 1	717.305	712.441	707.55	702.661	1116.4	1093.8	1071.1	1043.5

CC(C)NC(C)C [diisopropylamine] + CCC(C)O
Conditions	mass density, 293.15 K [kg/m3]	mass density, 298.15 K [kg/m3]	mass density, 303.15 K [kg/m3]	mass density, 308.15 K [kg/m3]	speed of sound, 293.15 K [m/s]	speed of sound, 298.15 K [m/s]	speed of sound, 303.15 K [m/s]	speed of sound, 308.15 K [m/s]
x1 = 0.1005	799.801	795.472	791.07	786.592	1230.8	1211.7	1192.3	1173.4
x1 = 0.1994	792.039	787.516	782.932	778.279	1226.2	1205.7	1185.3	1165
x1 = 0.3003	783.508	778.829	774.115	769.331	1217.3	1196.2	1175.6	1154
x1 = 0.3999	774.58	769.813	765.003	760.146	1205.6	1183.8	1162.3	1141.1
x1 = 0.5	764.776	759.954	755.099	750.197	1191	1169.2	1147.4	1125.6
x1 = 0.5961	755.456	750.604	745.72	740.801	1176.6	1154.3	1132.2	1110.4
x1 = 0.6964	745.553	740.705	735.88	731.103	1160.7	1139	1116.3	1094.2
x1 = 0.7997	736.007	731.125	726.228	721.299	1145.2	1122.7	1100.3	1078.3
x1 = 0.8967	726.62	721.759	716.873	711.96	1129.7	1107	1084.5	1062.5
x1 = 1	717.305	712.441	707.55	702.661	1116.4	1093.8	1071.1	1043.5

CCCCNCCCC [dibutylamine] + CCCC(C)O
Conditions	mass density, 293.15 K [kg/m3]	mass density, 298.15 K [kg/m3]	mass density, 303.15 K [kg/m3]	mass density, 308.15 K [kg/m3]	speed of sound, 293.15 K [m/s]	speed of sound, 298.15 K [m/s]	speed of sound, 303.15 K [m/s]	speed of sound, 308.15 K [m/s]
x1 = 0.1007	804.553	800.484	796.354	792.163	1257.5	1238.8	1220.2	1201.8
x1 = 0.1998	799.644	795.528	791.368	787.153	1261.6	1243	1224.2	1205.4
x1 = 0.3001	794.588	790.443	786.26	782.034	1264.1	1245.1	1226.2	1207.6
x1 = 0.4	789.453	785.286	781.088	776.854	1265	1246.3	1227.2	1208.3
x1 = 0.5004	784.348	780.174	775.972	771.739	1265.7	1246.5	1227.4	1208.4
x1 = 0.6	779.579	775.399	771.197	766.971	1266	1247	1227.7	1208.5
x1 = 0.7004	774.754	770.581	766.391	762.183	1266.2	1246.7	1227.3	1208.2
x1 = 0.7993	770.026	765.866	761.694	757.505	1265.8	1246.4	1227.8	1207.2
x1 = 0.9004	765.576	761.434	757.282	753.116	1265.8	1245.8	1226	1206.7
x1 = 1	759.579	755.48	751.374	747.268	1260.1	1240.1	1220.3	1200.6

— the NIST ThermoML archive (doi:10.1016/j.jct.2018.12.012)
